According to US7455976B2, “Method of measuring oxidized LDL/β2-glycoprotein I complex occurring in the living body” (priority 2002, dated 2008):

Experiments:
β2-GPI [1] = molecular target: T1, β2-GPI (Homo sapiens, UniProt P02749); assay: ELISA using a plate coated with the ligand, β2-GPI binding detected by anti-β2-GPI antibody; conditions: immobilized lipid; for β2-GPI-binding(OD) w/Cof-22, value in parentheses / β2-GPI-binding(OD) w/EY2C9, value in parentheses / β2-GPI-binding(OD) w/WB-CAL-1, value in parentheses: not explained (method: presence or absence of β2-GPI); for β2-GPI-binding(OD) w/Cof-22: detection with Cof-22; for β2-GPI-binding(OD) w/Cof-22 / β2-GPI-binding(OD) w/EY2C9 / β2-GPI-binding(OD) w/WB-CAL-1: upper value of the pair; for β2-GPI-binding(OD) w/EY2C9: detection with EY2C9; for β2-GPI-binding(OD) w/WB-CAL-1: detection with WB-CAL-1
T1 construct: β2-GPI was purified from plasma in healthy persons; from tissue; host or cells: pooled human plasma from healthy persons
T1 sequence (P02749 20-345): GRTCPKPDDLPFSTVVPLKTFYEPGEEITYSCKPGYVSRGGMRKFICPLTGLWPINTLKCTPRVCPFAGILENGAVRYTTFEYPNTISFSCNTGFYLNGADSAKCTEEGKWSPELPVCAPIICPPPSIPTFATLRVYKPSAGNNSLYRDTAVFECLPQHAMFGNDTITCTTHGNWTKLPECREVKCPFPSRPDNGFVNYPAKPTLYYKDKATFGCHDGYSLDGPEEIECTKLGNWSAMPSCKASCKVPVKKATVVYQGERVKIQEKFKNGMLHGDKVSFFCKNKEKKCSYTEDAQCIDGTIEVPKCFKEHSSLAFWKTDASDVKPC
Description: (7) ELISA for Detection of Anti-β2-GPI/Lipid IgG Antibody
CL (derived from bovine heart, manufactured by Sigma), oxLig-1 or 9-COOH-22KC (50 μg/ml ethanol, 50 μl/well) was adsorbed by evaporation onto a polystyrene plate (Immulon 1B; Dynex Technologies Inc.), and this plate was blocked with 1% BSA. In each well, the purified monoclonal autoantibody or serum sample (100-fold dilution) was incubated for 1 hour in the presence or absence of β2-GPI (25 μg/ml), and then HRP-labeled anti-mouse IgG or anti-human IgG or IgM was added to each well.
The subsequent step was carried out according to the method described in the “ELISA for detection of β2-GPI/oxLDL complex”. The optical density (OD) of each sample was corrected by the average OD of the blank wells, and its antibody titer was calculated by using the positive standard in the living body. When the antibody titer in a sample was more than 3 times as high as the standard deviation of the mean of plasma samples from 50 healthy persons, the sample was expressed as positive.

β2-GPI [2] = molecular target: T1, β2-GPI; assay: Ligand blotting analysis on a TLC plate; format: binding; conditions: detection by Cof-22 antibody and EY2C9 antibody; FIG. 1
Description: FIG. 1 is a graph showing ligand blotting analysis of two ω-carbdxylmutants (oxLig-1 and 9-COOH-22KC) of oxysterol ester. The ligand developed on a TLC plate was stained with I2 vapor (A), and the ligand blotting was conducted by using anti-β2-GPI antibody (Cof-22 (B) and EY2C9 (C)).
(5) Ligand Blotting Analysis on a Thin-Layer Chromatography (TLC) Plate
For conducting TLC ligand blotting, the lipid was spotted on a Polygram silica gel G plate (manufactured by Machery-Nagel) and developed with chloroform/methanol (8/1, v/v). The ligand blotting analysis was conducted according to a method described in [reference 7]. That is, the plate was dried and blocked with PBS containing 1% bovine serum albumin (BSA), and then the plate was incubated for 1 hour together with the β2-GPI and anti-β2-GPI antibodies (Cof-22 and EY2C9). Then, the plate was incubated for 1 hour with horseradish peroxidase (HRP)-labeled anti-mouse IgG antibody or anti-human IgM antibody. Between each step, the plate was washed sufficiently with PBS. Coloration was conducted using H2O2 and 4-methoxy-1-naphthol. In a TLC plate of control, the separated ligand was stained with I2 vapor.

CC(C)CCC(=O)[C@@H](C)[C@H]1CC[C@H]2[C@@H]3CC=C4C[C@@H](OC(=O)CCCCCCCCC(=O)O)CC[C@]4(C)[C@H]3CC[C@]12C [9-COOH-22KC, 22-Ketocholesteryl-9-carboxynonanoate]
β2-GPI-binding(OD) w/Cof-22, value in parentheses (β2-GPI [1]): (0.067 +/− 0.013) OD | β2-GPI-binding(OD) w/EY2C9, value in parentheses (β2-GPI [1]): (0.046 +/− 0.008) OD | β2-GPI-binding(OD) w/WB-CAL-1, value in parentheses (β2-GPI [1]): (0.031 +/− 0.011) OD | β2-GPI-binding(OD) w/Cof-22 (β2-GPI [1]): 0.217 +/− 0.016 OD | β2-GPI-binding(OD) w/EY2C9 (β2-GPI [1]): 0.130 +/− 0.024 OD | β2-GPI-binding(OD) w/WB-CAL-1 (β2-GPI [1]): 0.063 +/− 0.004 OD

CC(C)CCC[C@@H](C)[C@H]1CC[C@H]2[C@@H]3C(=O)C=C4C[C@@H](OC(=O)CCCCCCCCC(=O)O)CC[C@]4(C)[C@H]3CC[C@]12C [oxLig-1, 7-ketocholesteryl-9-carboxynonanoate]
β2-GPI-binding(OD) w/Cof-22, value in parentheses (β2-GPI [1]): (0.041 +/− 0.001) OD | β2-GPI-binding(OD) w/EY2C9, value in parentheses (β2-GPI [1]): (0.013 +/− 0.001) OD | β2-GPI-binding(OD) w/WB-CAL-1, value in parentheses (β2-GPI [1]): (0.013 +/− 0.004) OD | β2-GPI-binding(OD) w/Cof-22 (β2-GPI [1]): 1.194 +/− 0.099 OD | β2-GPI-binding(OD) w/EY2C9 (β2-GPI [1]): 0.878 +/− 0.031 OD | β2-GPI-binding(OD) w/WB-CAL-1 (β2-GPI [1]): 0.441 +/− 0.007 OD | β2-GPI binding in ligand blotting (β2-GPI [2]): bound predominantly
